Measurements reported in patent publication US20260265238A1, “COMPOUNDS AND PHARMACEUTICAL COMPOSITIONS THAT DEGRADE SWI/SNF-RELATED MATRIX-ASSOCIATED ACTIN-DEPENDENT REGULATOR OF CHROMATIN SUBFAMILY A” (Plexium, Inc., priority 2023, published 2026).

Legend:
[1] = biological target: T1, SMARCA4-HiBiT HeLa cells (protein which is expressed from the SMARCA4 gene) (Homo sapiens, UniProt P51532); experiment: SMARCA4 degradation assay (HiBiT-fusion HeLa cell line, 24 h, luminescence); format: cell-based
T1 construct: protein which is expressed from the SMARCA2 and SMARCA4 genes; host or cells: HeLa (SMARCA4-HiBiT engineered line)
T1 sequence (P51532 whole entry, the tested form may be a part): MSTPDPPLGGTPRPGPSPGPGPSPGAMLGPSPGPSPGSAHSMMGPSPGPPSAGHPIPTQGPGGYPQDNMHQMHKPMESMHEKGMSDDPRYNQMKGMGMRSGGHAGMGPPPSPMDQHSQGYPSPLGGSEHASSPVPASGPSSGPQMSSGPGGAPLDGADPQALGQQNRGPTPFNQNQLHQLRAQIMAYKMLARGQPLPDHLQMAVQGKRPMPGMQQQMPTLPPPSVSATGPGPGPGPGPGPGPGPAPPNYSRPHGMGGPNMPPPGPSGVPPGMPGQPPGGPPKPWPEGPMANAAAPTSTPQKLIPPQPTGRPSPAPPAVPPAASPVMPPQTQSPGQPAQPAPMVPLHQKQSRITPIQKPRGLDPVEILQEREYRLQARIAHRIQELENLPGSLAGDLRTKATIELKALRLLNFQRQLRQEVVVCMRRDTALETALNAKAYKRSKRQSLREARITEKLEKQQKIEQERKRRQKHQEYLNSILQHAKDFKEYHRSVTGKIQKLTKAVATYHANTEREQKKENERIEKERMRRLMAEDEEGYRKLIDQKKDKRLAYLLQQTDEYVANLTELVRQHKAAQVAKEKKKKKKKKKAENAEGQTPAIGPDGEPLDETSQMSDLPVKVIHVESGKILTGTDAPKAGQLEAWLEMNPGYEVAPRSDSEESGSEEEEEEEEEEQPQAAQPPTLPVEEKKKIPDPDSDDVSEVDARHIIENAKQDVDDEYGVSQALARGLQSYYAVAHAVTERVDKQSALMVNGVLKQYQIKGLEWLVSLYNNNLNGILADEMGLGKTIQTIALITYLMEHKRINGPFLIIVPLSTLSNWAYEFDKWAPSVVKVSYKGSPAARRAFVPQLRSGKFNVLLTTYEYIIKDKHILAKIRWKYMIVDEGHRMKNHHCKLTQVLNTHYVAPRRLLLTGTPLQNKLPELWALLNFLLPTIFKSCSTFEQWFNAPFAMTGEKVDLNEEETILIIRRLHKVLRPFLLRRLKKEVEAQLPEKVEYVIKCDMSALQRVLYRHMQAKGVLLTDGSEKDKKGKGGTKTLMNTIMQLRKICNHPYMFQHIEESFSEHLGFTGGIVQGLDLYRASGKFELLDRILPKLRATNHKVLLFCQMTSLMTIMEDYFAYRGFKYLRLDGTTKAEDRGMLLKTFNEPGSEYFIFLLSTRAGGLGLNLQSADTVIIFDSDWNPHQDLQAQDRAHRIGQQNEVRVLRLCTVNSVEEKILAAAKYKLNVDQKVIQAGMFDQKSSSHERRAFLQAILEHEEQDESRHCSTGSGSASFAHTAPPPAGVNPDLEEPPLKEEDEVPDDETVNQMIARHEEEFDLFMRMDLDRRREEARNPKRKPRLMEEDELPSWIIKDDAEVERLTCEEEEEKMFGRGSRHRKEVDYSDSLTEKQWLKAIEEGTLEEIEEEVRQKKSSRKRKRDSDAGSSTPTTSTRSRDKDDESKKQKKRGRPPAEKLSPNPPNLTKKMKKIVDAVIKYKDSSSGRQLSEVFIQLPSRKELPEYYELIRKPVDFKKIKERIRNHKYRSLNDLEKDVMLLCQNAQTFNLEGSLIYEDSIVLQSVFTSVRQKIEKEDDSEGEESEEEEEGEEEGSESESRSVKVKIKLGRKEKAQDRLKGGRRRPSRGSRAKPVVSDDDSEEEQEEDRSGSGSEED
Procedure, shortened: (§1)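 In this 24-hour cellular degradation readout, HiBiT-tagged HeLa lines received compound at up to typically 10 μM down to 300 pM in 10 points. After lysis with LgBiT and substrate, luminescence signals were used to build dose-response curves for DC50.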

[2] = biological target: T2, SMARCA2-HiBiT HeLa cells (protein which is expressed from the SMARCA2 gene) (Homo sapiens, UniProt P51531); experiment: SMARCA2 degradation assay (HiBiT-fusion HeLa cell line, 24 h, luminescence); format: cell-based
T2 construct: protein which is expressed from the SMARCA2 and SMARCA4 genes; host or cells: HeLa (SMARCA2-HiBiT engineered line)
T2 sequence (P51531 whole entry, the tested form may be a part): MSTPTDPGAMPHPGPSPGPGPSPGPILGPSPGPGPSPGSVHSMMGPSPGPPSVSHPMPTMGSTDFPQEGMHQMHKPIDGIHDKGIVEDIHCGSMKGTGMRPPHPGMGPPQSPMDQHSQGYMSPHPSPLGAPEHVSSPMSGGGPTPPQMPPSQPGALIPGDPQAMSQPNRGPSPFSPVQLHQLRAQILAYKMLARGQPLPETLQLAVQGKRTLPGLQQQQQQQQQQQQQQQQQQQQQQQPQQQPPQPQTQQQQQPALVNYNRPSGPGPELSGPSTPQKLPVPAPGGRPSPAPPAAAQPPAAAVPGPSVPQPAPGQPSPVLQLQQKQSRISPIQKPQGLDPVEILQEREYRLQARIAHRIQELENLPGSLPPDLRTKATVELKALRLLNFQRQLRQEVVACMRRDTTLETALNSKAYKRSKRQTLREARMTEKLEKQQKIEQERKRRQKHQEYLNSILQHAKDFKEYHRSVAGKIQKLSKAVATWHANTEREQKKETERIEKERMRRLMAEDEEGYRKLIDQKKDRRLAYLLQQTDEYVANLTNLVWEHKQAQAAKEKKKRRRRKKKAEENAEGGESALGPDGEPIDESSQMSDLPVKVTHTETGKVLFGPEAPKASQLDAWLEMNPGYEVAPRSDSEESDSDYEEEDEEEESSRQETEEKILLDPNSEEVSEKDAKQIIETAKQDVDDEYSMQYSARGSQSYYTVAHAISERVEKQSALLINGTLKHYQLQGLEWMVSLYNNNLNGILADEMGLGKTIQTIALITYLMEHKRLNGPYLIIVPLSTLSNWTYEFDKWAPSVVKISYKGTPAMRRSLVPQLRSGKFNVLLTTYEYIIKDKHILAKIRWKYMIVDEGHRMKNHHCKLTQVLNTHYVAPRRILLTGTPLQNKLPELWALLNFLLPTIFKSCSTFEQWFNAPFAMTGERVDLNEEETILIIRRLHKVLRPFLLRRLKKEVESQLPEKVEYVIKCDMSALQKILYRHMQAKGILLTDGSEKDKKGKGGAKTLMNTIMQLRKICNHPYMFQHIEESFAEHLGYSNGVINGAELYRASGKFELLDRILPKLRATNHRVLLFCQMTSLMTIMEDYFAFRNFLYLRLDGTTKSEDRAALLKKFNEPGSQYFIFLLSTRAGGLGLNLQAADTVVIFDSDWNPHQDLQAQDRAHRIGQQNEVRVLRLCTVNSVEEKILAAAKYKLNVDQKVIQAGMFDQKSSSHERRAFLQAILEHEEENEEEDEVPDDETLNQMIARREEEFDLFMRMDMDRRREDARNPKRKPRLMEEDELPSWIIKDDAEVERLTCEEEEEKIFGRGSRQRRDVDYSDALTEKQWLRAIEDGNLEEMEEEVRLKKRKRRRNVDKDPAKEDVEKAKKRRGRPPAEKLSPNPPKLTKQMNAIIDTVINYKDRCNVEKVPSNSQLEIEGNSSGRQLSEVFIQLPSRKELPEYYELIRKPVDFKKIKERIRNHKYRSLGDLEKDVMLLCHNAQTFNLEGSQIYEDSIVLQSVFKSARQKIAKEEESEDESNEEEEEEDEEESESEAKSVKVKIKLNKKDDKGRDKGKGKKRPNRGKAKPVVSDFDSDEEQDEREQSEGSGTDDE
Procedure, shortened: as §1

DC50 [1] [nM] | inhibition at 1 µM ([1]; @ 1 μM) [%] | DC50 [2] [nM] | SMARCA2 % Degradation @ 1 μM ([2]; @ 1 μM) | SMILES | SMARCA2 % Degradation @ 1 μM ([2]; 1 μM) | inhibition at 1 µM ([1]; 1 μM) [%]
< 50 | > 70 | < 50 | +++ (+++=>70%) | CN(CC#Cc1nccc(N2CCCN(c3cc(-c4ccccc4O)nnc3N)CC2)n1)c1nc2ccccc2o1 [Compound P-107, 2-(6-amino-5-(4-(2-(3-(benzo[d]oxazol-2-yl(methyl)amino)prop-1-yn-1-yl)pyrimidin-4-yl)-1,4-diazepan-1-yl)pyridazin-3-yl)phenol] |  | 
50 to 500 | 30 to 70 | 500 to 5000 | ++ (++=30-70%) | Nc1nnc(-c2ccccc2O)cc1N1CCCC2C1CCN2c1ccnc(C#CCNC(=O)c2cc3ncccn3n2)n1 (stereo not shown) [Compound P-79, N-(3-(4-(4-(3-amino-6-(2-hydroxyphenyl)pyridazin-4-yl)octahydro-1H-pyrrolo[3,2-b]pyridin-1-yl)pyrimidin-2-yl)prop-2-yn-1-yl)pyrazolo[1,5-a]pyrimidine-2-carboxamide] |  | 
< 50 | 30 to 70 | < 50 | ++ (++=30-70%) | CN(C)CC#Cc1nccc(N2CC(n3cc(-c4cc(-c5ccccc5O)nnc4N)cn3)C2)n1 [Compound P-216, o-{6-amino-5-[1-(1-{2-[3-(dimethylamino)-1-propynyl]-4-pyrimidinyl}-3-azetidinyl)-4-pyrazolyl]-3-pyridazinyl} phenol] |  | 
< 50 | 30 to 70 | < 50 | ++ (++=30-70%) | CC1CCC(C)N1CC#Cc1nccc(N2CCN(c3cc(-c4ccccc4O)nnc3N)CC[C@H]2C)n1 (stereo partly drawn) [Compound P-246, o-{5-[(R)-4-{2-[3-(2,5-dimethyl-1-pyrrolidinyl)-1-propynyl]-4-pyrimidinyl}-5-methyl-1,4-diazepan-1-yl]-6-amino-3-pyridazinyl}phenol] |  | 
50 to 500 | 30 to 70 | 50 to 500 | ++ (++=30-70%) | C[C@H]1COC[C@H](C)N1CC#Cc1nccc(N2CCCN(c3cc(-c4ccccc4O)nnc3N)CC2)n1 [Compound P-305, 0-{5-[4-(2-{3-[(3S,5S)-3,5-dimethyl-4-morpholinyl]-1-propynyl}-4-pyrimidinyl)-1,4-diazepan-1-yl]-6-amino-3-pyridazinyl}phenol] |  | 
50 to 500 | 30 to 70 | 50 to 500 | ++ (++=30-70%) | C[C@@H]1CCN(c2cc(-c3ccccc3O)nnc2N)CCN1c1ccnc(C#CCN2CC(F)(F)C3(CCC3)C2)n1 [Compound P-209, o-{5-[(R)-4-(2-{3-(8,8-difluoro-6-aza-6-spiro[3.4]octyl)-1-propyny1}-4-pyrimidinyl)-5-methyl-1,4-diazepan-1-yl]-6-amino-3-pyridaziny1} phenol] |  | 
500 to 5000 | < 30 | 500 to 5000 | ++ (++=30-70%) | Nc1nnc(-c2ccccc2O)cc1N1CCCN(c2ccnc(C#CCNc3ncco3)n2)CC1 [Compound P-15, 2-(6-amino-5-(4-(2-(3-(oxazol-2-ylamino)prop-1-yn-1-yl)pyrimidin-4-yl)-1,4-diazepan-1-yl)pyridazin-3-yl)phenol] |  | 
50 to 500 | 30 to 70 | 50 to 500 | ++ (++=30-70%) | CCC1CN(CC#Cc2nccc(N3CCCN(c4cc(-c5ccccc5O)nnc4N)CC3)n2)c2ccccc2O1 (stereo not shown) [Compound P-360, 0-[6-amino-5-(4-{2-[3-(2-ethyl-3,4-dihydro-2H-1,4-benzoxazin-4-yl)-1-propynyl]-4-pyrimidinyl}-1,4-diazepan-1-yl)-3-pyridazinyl]phenol] |  | 
50 to 500 | 30 to 70 | 50 to 500 | ++ (++=30-70%) | N#CC1CN(CC#Cc2nccc(N3CCCN(c4cc(-c5ccccc5O)nnc4N)CC3)n2)CCO1 (stereo not shown) [Compound P-310, 4-[3-(4-{4-[3-amino-6-(o-hydroxyphenyl)-4-pyridazinyl]-1,4-diazepan-1-y1}-2-pyrimidinyl)-2-propynyl]-2-morpholinecarbonitrile] |  | 
< 50 |  | < 50 |  | C[C@@H]1CCN1CC#Cc1cc(N2CCN(c3cc(-c4ccccc4O)nnc3N)CC[C@H]2C)ccn1 [Compound P-420, 0-{5-[(R)-4-(2-{3-[(R)-2-methyl-1-azetidinyl]-1-propynyl}-4-pyridyl)-5-methyl-1,4-diazepan-1-yl]-6-amino-3-pyridaziny1}phenol] | +++ (+++=>70%) | 30 to 70
> 5000 |  | 500 to 5000 |  | N#Cc1ccc(N2C3CCC2CN(c2cnnc(-c4ccccc4O)c2)C3)nc1C#CCN1CC(F)(F)C1 [Compound P-403, 2-[3-(3,3-difluoro-1-azetidinyl)-1-propynyl]-6-{3-[6-(o-hydroxyphenyl)-4-pyridazinyl]-3,8-diazabicyclo[3.2.1]oct-8-yl} nicotinonitrile] |  | 
50 to 500 | > 70 | 50 to 500 | +++ (+++=>70%) | C[C@@H]1CCN(c2cc(-c3ccccc3O)nnc2N)CCN1c1ccnc(/C=C/CN2CCC2)n1 [Compound P-166, o-{5-[(R)-4-{2-[3-(1-azetidinyl)-1-propenyl]-4-pyrimidinyl}-5-methyl-1,4-diazepan-1-yl]-6-amino-3-pyridazinyl}phenol] |  | 
< 50 | 30 to 70 | < 50 | ++ (++=30-70%) | C[C@@H]1CN(c2cc(-c3ccccc3O)nnc2N)CCN1c1ccnc(C#CCNC(=O)c2cc3ncccn3n2)n1 [Compound P-50, (R)-N-(3-(4-(4-(3-amino-6-(2-hydroxyphenyl)pyridazin-4-yl)-2-methylpiperazin-1-yl)pyrimidin-2-yl)prop-2-yn-1-yl)pyrazolo[1,5-a]pyrimidine-2-carboxamide] |  | 
500 to 5000 | 30 to 70 | 500 to 5000 | ++ (++=30-70%) | Cn1ccnc1C#Cc1nccc(N2CCCN(c3cc(-c4ccccc4O)nnc3N)CC2)n1 [Compound P-354] |  | 
50 to 500 | 30 to 70 | 50 to 500 | ++ (++=30-70%) | Cc1cc(C(=O)NCC#Cc2nccc(N3CCN(c4cc(-c5ccccc5O)nnc4N)CC3)n2)nn1C [Compound P-12, N-(3-(4-(4-(3-amino-6-(2-hydroxyphenyl)pyridazin-4-yl)piperazin-1-yl)pyrimidin-2-yl)prop-2-yn-1-yl)-1,5-dimethyl-1H-pyrazole-3-carboxamide] |  | 
50 to 500 | 30 to 70 | 50 to 500 | ++ (++=30-70%) | CCc1cc(C(=O)NCC#Cc2nccc(N3CCN(c4cc(-c5ccccc5O)nnc4N)CC3)n2)nn1C [Compound P-2, N-[3-(4-{4-[3-amino-6-(2-hydroxyphenyl)pyridazin-4-yl]piperazin-1-yl}pyrimidin-2-yl)prop-2-yn-1-yl]-5-ethyl-1-methyl-1H-pyrazole-3-carboxamide] |  | 

SMILES | DC50 [1] [nM] | inhibition at 1 µM ([1]; @ 1 μM) [%] | DC50 [2] [nM] | SMARCA2 % Degradation @ 1 μM ([2]; @ 1 μM) | SMARCA2 % Degradation @ 1 μM ([2]; 1 μM) | inhibition at 1 µM ([1]; 1 μM) [%]
Oc1ccccc1-c1cc(N2CC3CCC(C2)N3c2ccnc(C#CCN3CCCCC3)n2)cnn1 [Compound P-369, 0-(5-{8-[2-(3-piperidino-1-propynyl)-4-pyrimidinyl]-3,8-diazabicyclo[3.2.1]oct-3-y1}-3-pyridazinyl)phenol] | 500 to 5000 | < 30 | < 50 | ++ (++=30-70%) |  | 
CN(C)CC#Cc1nccc(N2C3CCC2CN(c2cnnc(-c4ccccc4O)c2)C3)n1 [Compound P-381, 0-[5-(8-{2-[3-(dimethylamino)-1-propynyl]-4-pyrimidinyl}-3,8-diazabicyclo[3.2.1]oct-3-yl)-3-pyridazinyl]phenol] | > 5000 |  | 50 to 500 |  | ++ (++=30-70%) | 
Cn1ccc(NCC#Cc2nccc(N3CC4CCC(C3)N4c3cc(-c4ccccc4O)nnc3N)n2)n1 [Compound P-130, 2-(6-amino-5-(3-(2-(3-((1-methyl-1H-pyrazol-3-yl)amino)prop-1-yn-1-yl)pyrimidin-4-yl)-3,8-diazabicyclo[3.2.1]octan-8-yl)pyridazin-3-yl)phenol] | 50 to 500 | 30 to 70 | 50 to 500 | +++ (+++=>70%) |  | 
N#Cc1ccc(N2C3CCC2CN(c2cnnc(-c4ccccc4O)c2)C3)nc1C#CCN1CC[C@H](F)C1 [Compound P-402, 2-{3-[(S)-3-fluoro-1-pyrrolidinyl]-1-propynyl}-6-{3-[6-(o-hydroxyphenyl)-4-pyridazinyl]-3,8-diazabicyclo[3.2.1]oct-8-yl}nicotinonitrile] | 50 to 500 |  | 50 to 500 |  | ++ (++=30-70%) | < 30
Nc1nnc(-c2ccccc2O)cc1N1CC2CCC(C1)N2c1ccnc(C#CC2(NC(=O)c3cc4ncccn4n3)CC2)n1 [Compound P-98, N-(1-((4-(3-(3-amino-6-(2-hydroxyphenyl)pyridazin-4-yl)-3,8-diazabicyclo[3.2.1]octan-8-yl)pyrimidin-2-yl)ethynyl)cyclopropyl)pyrazolo[1,5-a]pyrimidine-2-carboxamide] | 50 to 500 | 30 to 70 | 50 to 500 | ++ (++=30-70%) |  | 
CC(C)(C)OC(=O)NCC#Cc1nccc(N2CCC3CCC(C2)N3c2cc(-c3ccccc3O)nnc2N)n1 (stereo not shown) [Compound P-267, 3-(4-{9-[3-amino-6-(o-hydroxyphenyl)-4-pyridaziny1]-3,9-diazabicyclo[4.2.1]non-3-yl}-2-pyrimidinyl)-2-propynylamino-tert-butylformylate] | 50 to 500 | 30 to 70 | 50 to 500 | +++ (+++=>70%) |  | 
